Results on two compounds are retold here after ChEMBL document CHEMBL1201862, “PubChem BioAssay data set” (2004).

Among the test systems are OVCAR-4; SF-268; SNB-75; SK-MEL-28; SNB-19; KM-20L2; OVCAR-5; UACC-257; HL-60; A549; LOX IMVI; DLD-1; SF-295; OVCAR-3; OVCAR-8; RPMI-8226; HCT-15; KM12; ACHN; TK-10.
Assay in all cases: NCI-60 cell line screen, 48 h

Structures are written as SMILES.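 Where inhibition never reached the appropriate level, the endpoint shown equals the highest concentration tested. Otherwise, values were interpolated linearly from a five-concentration, 48-hour dose response in 96-well plates. The concentration for 50% growth inhibition is given as GI50.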 Activity calls are given as the source filed them. No stated cut-off is given here; in the data, active = GI50 up to about 1.1 µM and inactive = higher.

As for `Cc1ccc(S(=O)(=O)Oc2cc(-c3ccccc3)nc3ccccc23)cc1`, the GI50 in the test on OVCAR-4 was 7.33 µM (inactive); in the test with SF-268, 8.77 µM (inactive); with SNB-75, 1.92 µM (inactive); in the test on SK-MEL-28 it was 11.3 µM (inactive); in the test with SNB-19, 0.419 µM (active); in the test with KM-20L2, 1.57 µM (inactive). For the same compound, the GI50 is 15.8 µM (inactive) with OVCAR-5; 10 µM (inactive) in the test with UACC-257; 1.03 µM (active) in the test on HL-60; 3.15 µM (inactive) in the test on A549; 8.97 µM (inactive) with LOX IMVI; 2.49 µM (inactive) in the test on DLD-1. The GI50 in the test on SF-295 was 1.91 µM (inactive); with OVCAR-3, 2.12 µM (inactive); with OVCAR-8, 5.24 µM (inactive); with RPMI-8226, 2.61 µM (inactive); with HCT-15 it was 1.41 µM; in the test with KM12 it was 1.2 µM (inactive).

Turning to `Cc1ccc(C2C(Cl)C(=O)N2NC(=O)c2ccc(N)cc2)cc1` (configuration not stated), the GI50 in the test on OVCAR-4 is 29 µM (inactive); in the test with ACHN, 31.9 µM (inactive); in the test with SNB-75 it was 47.6 µM (inactive); in the test with SK-MEL-28, 12.4 µM (inactive); with SNB-19, 18.4 µM (inactive); in the test with KM-20L2 it was 23.8 µM (inactive). For the same compound, the GI50 in the test with OVCAR-5 was 24.3 µM (inactive); with UACC-257 it was 24.3 µM (inactive); in the test on HL-60, 12.1 µM (inactive); with A549, 27.7 µM (inactive); with TK-10 it was 43.6 µM (inactive); in the test on LOX IMVI it was 11.2 µM (inactive). Besides, the GI50 is 20.5 µM (inactive) in the test with DLD-1; 20.3 µM (inactive) in the test on SF-295; 17.4 µM (inactive) with OVCAR-3; 14.4 µM (inactive) in the test with OVCAR-8; 24.2 µM (inactive) in the test with RPMI-8226; 15.7 µM with HCT-15. Also, in the test on KM12, the GI50 was 25.5 µM (inactive).
